How the values were obtained:
Assay in all cases: relative viability (nuclei count vs DMSO), 5 days (fraction); higher = more cells survive
[1] = compound: Cc1ccc2nc(NCCN)c3ncc(C)n3c2c1 + NC(=O)Nc1cc(-c2cccc(F)c2)sc1C(=O)N[C@H]1CCCNC1 [AZD7762] (partner 0.2 µM)
In short: (§1)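 Medians of duplicate plates are given as relative viability. That measure is the nuclei count in treated wells divided by the count in vehicle wells. Counts were taken on 4× images of lung cancer cell lines in 1536-well plates, 5 days after pin-tool dosing the day after seeding with one drug alone or a fixed anchor-drug dose plus five library-drug doses (not always all listed) in √10 steps.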

Salubrinal + Phenformin = compound: O=C(/C=C/c1ccccc1)NC(NC(=S)Nc1cccc2cccnc12)C(Cl)(Cl)Cl [Salubrinal] + N=C(N)NC(=N)NCCc1ccccc1 [Phenformin] (partner 250 µM)
In short: as §1

[2] = compound: Cc1ccc2nc(NCCN)c3ncc(C)n3c2c1 + Cc1cc(Nc2cc(N3CCN(C)CC3)nc(Sc3ccc(NC(=O)C4CC4)cc3)n2)n[nH]1 [Tozasertib] (partner 0.1 µM)
In short: as §1

[3] = compound: Cc1ccc2nc(NCCN)c3ncc(C)n3c2c1 + Nc1nc2[nH]cc(CCc3ccc(C(=O)N[C@@H](CCC(=O)O)C(=O)O)cc3)c2c(=O)[nH]1 [Pemetrexed] (partner 0.2 µM)
In short: as §1

Cell Line	relative viability ([1]; first compound 0.04 µM)	relative viability ([1]; first compound 0.1265 µM)	relative viability ([1]; first compound 0.4 µM)	relative viability ([1]; first compound 1.265 µM)	relative viability ([1]; first compound 4 µM)	relative viability (Salubrinal + Phenformin; first compound 0.08 µM)	relative viability (Salubrinal + Phenformin; first compound 0.253 µM)	relative viability (Salubrinal + Phenformin; first compound 0.8 µM)	relative viability (Salubrinal + Phenformin; first compound 2.53 µM)	relative viability (Salubrinal + Phenformin; first compound 8 µM)	relative viability ([2]; first compound 0.04 µM)	relative viability ([2]; first compound 0.1265 µM)	relative viability ([2]; first compound 0.4 µM)	relative viability ([2]; first compound 1.265 µM)	relative viability ([2]; first compound 4 µM)	relative viability ([3]; first compound 0.04 µM)	relative viability ([3]; first compound 0.1265 µM)	relative viability ([3]; first compound 0.4 µM)	relative viability ([3]; first compound 1.265 µM)	relative viability ([3]; first compound 4 µM)
LOU-NH91	0.869	0.789	0.753	0.702	0.733	0.813	0.693	0.739	0.583	0.663	0.654	0.628	0.638	0.626	0.617	0.411	0.344	0.361	0.465	0.495
LU99A	0.485	0.425	0.314	0.286	0.354	0.921	0.916	0.992	0.906	0.896	0.308	0.292	0.248	0.298	0.263	0.165	0.209	0.208	0.188	0.209
LXF-289	1.19	1.1	1.08	1.06	1.12	0.542	0.451	0.555	0.504	0.502	0.186	0.192	0.163	0.178	0.212	0.905	0.876	0.87	0.865	0.933
NCI-H23	0.282	0.297	0.261	0.228	0.22	0.84	0.939	0.8	0.748	0.814	0.707	0.403	0.451	0.301	0.422	0.666	0.691	0.741	0.641	0.581
NCI-H322M	0.446	0.703	0.638	0.552	0.605	0.783	0.725	0.929	0.769	0.678	0.553	0.452	0.528	0.547	0.462	0.654	0.621	0.62	0.634	0.647
NCI-H358	0.51	0.573	0.413	0.515	0.401	0.365	0.27	0.36	0.319	0.278	0.11	0.134	0.0909	0.101	0.098	0.185	0.165	0.166	0.178	0.192
NCI-H441	1.35	1.09	1.05	1.25	1.19	0.939	0.855	0.892	0.755	0.72	0.605	0.631	0.716	0.625	0.685	0.301	0.288	0.269	0.268	0.261
NCI-H460	0.614	0.636	0.631	0.7	0.541	0.706	0.32	0.629	0.515	0.49	0.453	0.481	0.603	0.312	0.386	0.0612	0.0659	0.065	0.0654	0.0753
NCI-H522	0.754	0.778	0.634	0.843	0.765	0.723	0.662	0.714	0.615	0.605	0.557	0.647	0.555	0.517	0.592	1.02	1.24	0.766	1.28	0.95
NCI-H596	1.07	1.08	1.04	0.915	1.11	0.98	0.703	0.68	0.757	0.704	1.16	1.01	0.922	0.883	0.863	0.484	0.447	0.506	0.515	0.49
NCI-H647	0.44	0.517	0.38	0.574	0.148	0.607	0.293	0.885	0.595	0.452	0.246	0.306	0.356	0.281	0.128	0.179	0.158	0.243	0.221	0.243
NCI-H650	0.95	0.901	0.681	0.958	1.03	0.456	0.514	0.509	0.499	0.417	0.725	0.727	0.752	0.615	0.746	0.999	0.976	0.827	1.01	0.851
NCI-H838	1.05	0.932	0.914	0.858	0.874	0.657	0.379	0.695	0.602	0.622	0.259	0.287	0.278	0.304	0.26	0.277	0.247	0.252	0.302	0.419
NCI-H1355	0.75	0.685	0.72	0.644	0.763	0.424	0.426	0.475	0.456	0.44	0.565	0.517	0.611	0.546	0.553	1.05	1.16	0.987	1.03	0.971
NCI-H1395	0.409	0.435	0.43	0.422	0.398	0.473	0.459	0.451	0.453	0.431	0.754	0.763	0.661	0.655	0.795	0.881	0.995	0.855	0.697	0.56
NCI-H1437	1.08	1.12	1.16	0.901	1.04	0.314	0.251	0.343	0.283	0.306	0.412	0.399	0.39	0.364	0.368	0.304	0.312	0.332	0.296	0.35

Source: the supplement of paper PMC10307832
